The source of these data is ChEMBL document CHEMBL1153101, “Hit to lead studies on (hetero)arylpyrimidines--agonists of the canonical Wnt-beta-catenin cellular messaging system” (Bioorg Med Chem Lett, 2010).

As usually defined, the EC50 is the midpoint of the concentration-response curve. Read a high EC50 as a need for much substance. What is called IC50 is the point on the concentration scale where inhibition reaches its midpoint. A high value points to lower potency. As a reminder, the half-life is the time needed for the level to fall by half in the phase considered. Low values mean fast loss, high ones slow loss. In general, solubility refers to how much of the substance goes into solution per volume.

For series [1], the system named is U2OS. As to the kind of experiment: Activation of Wnt-3a/Dkk-1 expressed in human U2OS cells at 20 uM by TCF-luciferase assay relative to control. The series is classed as cell-based.
Series [2] in a line: Activation of Wnt-3a/Dkk-1 expressed in human U2OS cells by TCF-luciferase assay. The series is classed as cell-based.
Series [3] relates to Mus musculus. As to the kind of experiment: Osteogenic activity in wild type C57BL/6 mouse calvaria in vivo assessed as non phosphorylated beta-catenin at 0.3 mg/kg/day by immunohistochemistry.
Series [4] relates to Mus musculus. The experiment in a line: Osteogenic activity in wild type C57BL/6 mouse calvaria in vivo assessed as increase in mineral apposition rate at 0.1 mg/kg/day by histomorphometry measurement.
Series [5] has as its system Mus musculus. The experiment in a line: Osteogenic activity in wild type C57BL/6 mouse calvaria in vivo assessed as increase in mineral apposition rate at 0.03 mg/kg/day by histomorphometry measurement.
Series [6] can be described thus: Inhibition of Wnt-3a/Dkk-1-mediated [32P]GSk3beta phosphorylation in human U2OS cells at 20 uM by TCF-luciferase assay relative to control. The series is classed as cell-based.
In series [7] the test system is Mus musculus. As to the kind of experiment: Osteogenic activity in wild type C57BL/6 mouse calvaria in vivo assessed as non phosphorylated beta-catenin at 1 mg/kg/day by immunohistochemistry.
The nature of series [8]: Metabolic stability in rat liver microsomes. The series is classed as ADME, Microsome. (In general: Microsomes from liver hold many membrane-bound enzymes, among them those of drug oxidation.)
The nature of series [9]: Permeability by PAMPA. The settings on record: read-out: permeability. The series is classed as ADME. (In general: The PAMPA barrier holds no transporters, so it reflects passive diffusion.)
The nature of series [10]: Aqueous solubility of the compound. The series is classed as physicochemical.

Molecules are shown by their SMILES. ≈ marks a conversion by molar mass, not a printed value. Calls of active or inactive are those of the source.

The compound `OC[C@H](Cc1cn(Cc2cc(F)cc(F)c2)cn1)Nc1nccc(-c2ccc3ccccc3c2)n1` displayed a fold change (FC) in [1] of 2.
Compound `Cc1cc(C)n(CCCNc2nccc(-c3ccncc3)n2)n1` displayed a fold change (FC) in series [1] of 2.1. Further, the EC50 in series [2] came to 29.6 µM.
The like results for `c1cncc(-c2ccnc(NCCc3c[nH]cn3)n2)c1` were, in that order, 3.1 and 28.8 µM.
The like results for `OC[C@H](Cc1cn(Cc2cc(F)cc(F)c2)cn1)Nc1nccc(-c2cc3ccccc3s2)n1` were, in that order, 1.7 and 16 µM.
As for `c1cncc(-c2ccnc(NCCc3ccncc3)n2)c1`, the fold change (FC) in [1] was 3.4. The same compound yielded an EC50 in series [2] of 20.2 µM.
As to `c1cc(-c2ccnc(NCCCn3ccnc3)n2)ccn1`, the result in series [3], in series [4], in [5] and in series [7] was Active. This compound also returned a fold change (FC) in [1] of 2.9. Moreover, the EC50 in series [2] is 4.2 µM. Moreover, half-maximal inhibition in series [6] (IC50) was put at 51 µM.
In series [1], `N#CCCn1cnc(C[C@@H](CO)Nc2nccc(-c3ccc4ccccc4c3)n2)c1` had a fold change (FC) of 5.5.
`CCOC[C@H](Cc1c[nH]cn1)Nc1nccc(-c2ccc3ccccc3c2)n1` yielded a fold change (FC) in series [1] of 1.9. Moreover, the EC50 in series [2] worked out at 14.4 µM.
The like results for `C#CCn1cnc(C[C@@H](CO)Nc2nccc(-c3cc4ccccc4s3)n2)c1` were, in that order, 3 and 14.6 µM.
The compound `N#CCCn1cnc(C[C@@H](CO)Nc2nccc(-c3cc4ccccc4s3)n2)c1` displayed a fold change (FC) in [1] of 4.1.
For the compound `c1cncc(-c2ccnc(NCCc3c[nH]c4ccccc34)n2)c1`, the fold change (FC) in [1] amounted to 10. Also, in [2], a half-maximal response (EC50) required 4.1 µM.
Turning to `Cc1[nH]c2ccc(O)cc2c1CCNc1nccc(-c2cccnc2)n1`, the fold change (FC) in series [1] stood at 5.1. Moreover, the EC50 in [2] amounted to 12.2 µM.
`O=[N+]([O-])c1cccc(-c2ccnc(NCCCn3ccnc3)n2)c1` came in with a fold change (FC) in series [1] of 3.6. Moreover, in series [2], a half-maximal response (EC50) required 46.3 µM.
The like results for `c1cncc(-c2ccnc(NCCCn3ccnc3)n2)c1` were, in that order, 4.7 and 8.8 µM.
`C#CCOC[C@H](Cc1c[nH]cn1)Nc1nccc(-c2cc3ccccc3s2)n1` gave a fold change (FC) in series [1] of 3.5.
Consider `OC[C@H](Cc1c[nH]cn1)Nc1nccc(-c2ccc3ccccc3c2)n1`, for which the outcome in [4] and in series [5] was Active. Also, the half-life in series [8] was ≥ 1.33 h. Also, the Papp in series [9] was determined as 0.13 ×10⁻⁶ cm/s. Besides, in series [10], the solubility came to 65 µg/mL (≈ 188 µM). Further, the fold change (FC) in series [1] amounted to 4.9. Also, the midpoint of the response in [2], the EC50, lay at 6.8 µM.
In series [1], `Fc1c(COC[C@H](Cc2c[nH]cn2)Nc2nccc(-c3ccc4ccccc4c3)n2)cccc1C(F)(F)F` gave a fold change (FC) of 1.6. The compound further registered a concentration for a half-maximal effect (EC50) in series [2] of 10.9 µM.
In series [1], `c1ccc2cc(-c3ccnc(NCCc4c[nH]cn4)n3)ccc2c1` yielded a fold change (FC) of 1.1. The compound further showed an EC50 in [2] of 12.1 µM.
On to `NC(=O)Cn1cnc(C[C@@H](CO)Nc2nccc(-c3ccc4ccccc4c3)n2)c1`, for which, in [1], the fold change (FC) worked out at 3.9.
In the case of `c1ccc2sc(-c3ccnc(NCCc4c[nH]cn4)n3)cc2c1`, in series [1], the fold change (FC) is 3.7. Also, the response in [2] was half-maximal at 3.3 µM (EC50).
The like results for `c1cncc(CCNc2nccc(-c3ccncc3)n2)c1` were, in that order, 2.8 and 4.6 µM.
Take `C=C1CCCCC1OC[C@H](Cc1c[nH]cn1)Nc1nccc(-c2ccc3ccccc3c2)n1` (stereo partly drawn): the fold change (FC) in [1] came out at 2.2. Also, a half-maximal response in series [2] (EC50) required 20.8 µM.
The compound `c1ccc2c(CCNc3nccc(-c4ccncc4)n3)c[nH]c2c1` gave a fold change (FC) in [1] of 7.5. This compound displayed an EC50 in series [2] of 2.7 µM.
The like results for `c1cc(CCNc2nccc(-c3ccncc3)n2)ccn1` were, in that order, 4.3 and 6.8 µM.
